In paper PMC12221116, “Novel Quinazolinones Active against Multidrug‐Resistant Mycobacterium Tuberculosis: Synthesis, Antimicrobial Evaluation, and in Silico Exploration of Penicillin‐Binding Protein 1A as a Potential Target” (Chemmedchem, 2025):
Values after ≈ are worked out from the molar mass of the structure shown. Read-outs that look alike come from different tables or passages of the source.

How the values were obtained:
[1] = tested on: Mycobacterium tuberculosis; details: target CHEMBL360; ref ChEMBL; cited from earlier work
[2] = tested on: HepG2; details: for IC50: cytotoxicity
[3] = tested on: M. aurum; assay: Microdilution broth resazurin assay, MIC; format: cell-based, Mycolicibacterium aurum
[4] = tested on: Mtb H37Rv; assay: Microplate Alamar Blue assay, MIC; format: cell-based, Mycobacterium tuberculosis; details: for MIC: Mycobacterium tuberculosis, H37RV
[5] = tested on: M. kansasii; assay: Microplate Alamar Blue assay, MIC; format: cell-based, Mycobacterium kansasii
[6] = tested on: MRC-5; details: for IC50: cytotoxicity
[7] = tested on: M. avium; assay: Microdilution broth resazurin assay, MIC; format: cell-based, Mycobacterium avium
[8] = tested on: M. smegmatis; assay: Microdilution broth resazurin assay, MIC; format: cell-based, Mycolicibacterium smegmatis
[9] = tested on: Mtb H37Ra; assay: Microdilution broth resazurin assay, MIC; format: cell-based, Mycobacterium tuberculosis; details: for MIC: Mycobacterium tuberculosis, H37RA
[10] = tested on: Bacteria, incl. SA; assay: Antibacterial microdilution screening (eight strains); format: cell-based; details: read after 24 and 48 h, highest tested concentration 500 μM
[11] = tested on: MRC-5; assay: cells; details: Homo sapiens, MRC5, 24 h, read-out: IC50 for MRC-5 [24 h]
[12] = tested on: Fungi; assay: Antifungal microdilution screening (eight strains); format: cell-based; details: read after 24 and 48 h (72 and 120 h for TI), highest tested concentration 500 μM
[13] = tested on: MDR Mtb H37Rv; assay: microbe, parasite or virus in culture; format: cell-based; details: Mycobacterium tuberculosis, read-out: MIC MDR Mtb H37Rv
[14] = tested on: HepG2; assay: cells; details: Homo sapiens, HepG2, 24 h, read-out: IC50 for HepG2 [24 h]
[15] = tested on: Candida parapsilosis ATCC 22019, CCM 8260; assay: Antifungal microdilution broth, quality standards; format: cell-based
[16] = tested on: Candida tropicalis ATCC 750, CCM 8264; assay: Antifungal microdilution broth, quality standards; format: cell-based; details: 24 h; for MIC: read-out: MIC, visual detection, Candida tropicalis
[17] = tested on: Aspergillus fumigatus ATCC 204305; assay: Antifungal microdilution broth, quality standards; format: cell-based; details: ATCC204305, 48 h; for MIC: read-out: MIC, visual detection, Aspergillus fumigatus
[18] = tested on: Candida albicans ATCC 24433, CCM 8320; assay: Antifungal microdilution broth, quality standards; format: cell-based; details: 24 h
[19] = tested on: Trichophyton interdigitale ATCC 9533, CCM 8377; assay: Antifungal microdilution broth, quality standards; format: cell-based; details: 120 h; for MIC: read-out: MIC, visual detection, Trichophyton interdigitale
[20] = tested on: Candida krusei ATCC 6258, CCM 8271; assay: Antifungal microdilution broth, quality standards; format: cell-based
[21] = tested on: Aspergillus flavus CCM 8363; assay: Antifungal microdilution broth, quality standards; format: cell-based; details: CCM8363, 48 h; for MIC: read-out: MIC, visual detection, Aspergillus flavus
[22] = tested on: Lichtheimia corymbifera CCM 8077; assay: Antifungal microdilution broth, quality standards; format: cell-based; details: CCM8077, 48 h; for MIC: read-out: MIC, visual detection, Lichtheimia corymbifera
[23] = Table S5 matching pairs series A and B

In the case of `C#CCNc1ccc2c(=O)n(-c3ccccc3)c(C)nc2c1` [CHEMBL4444032], the “MIC Mycobacterium tuberculosis” value [1] is given as 4 µg/mL (≈ 13.8 µM).

For `COc1cccc(Cn2c(C)nc3ccccc3c2=O)c1` [Compound 2], the IC50 ([2]; read-out: IC50 for HepG2 [24 h], 24 h incubation) was 305 ± 3 µM, the IC50 ([2]; read-out: IC50 for HepG2 [72 h], 72 h incubation) was 135 ± 6 µM and the “Antimycobacterial Activity MIC M. aurum” value [3] was 125 µg/mL. The “Antimycobacterial Activity MIC M. aurum” value [3, 23] was 125 µg/mL, the “Antimycobacterial Activity MIC Mtb H37Rv” value ([4]; Microplate Alamar Blue assay) was 100 µg/mL and the “Antimycobacterial Activity MIC M. kans.” value [5] was 100 µg/mL. For the same compound, the IC50 ([6]; read-out: IC50 for MRC-5 [24 h], 24 h incubation) was over 300 µM, the IC50 ([6]; read-out: IC50 for MRC-5 [72 h], 72 h incubation) was 215 ± 24 µM and the “Antimycobacterial Activity MIC M. avium” value [7] was 62.5 µg/mL. For the same compound, the “Antimycobacterial Activity MIC M. avium” value [7, 23] was 62.5 µg/mL, the “Antimycobacterial Activity MIC M. smeg.” value [8] was 250 µg/mL and the “Antimycobacterial Activity MIC M. smeg.” value [8, 23] was 250 µg/mL. The “Antimycobacterial Activity MIC Mtb H37Ra” value [9] was 62.5 µg/mL and the “Antimycobacterial Activity MIC Mtb H37Ra” value [9, 23] was 62.5 µg/mL.

In the case of `Cc1nc2cc(Cl)ccc2c(=O)n1/N=C/c1ccc(O)c([N+](=O)[O-])c1` [Compound 25], the “nontoxic for human cell lines up to” value ([2]; HepG2) is reported as “up to 1000 μM”, the “MIC Bacteria, incl. SA” value [10] is reported as “inactive” and the IC50 [11] is reported as over 1000 µM. For the same compound, the MIC ([3]; Mycolicibacterium aurum, read-out: Antimycobacterial Activity MIC M. aurum) was at least 62.5 µg/mL, the “MIC Fungi” value [12] was “inactive” and the MIC [13] was 17 to 70 µM (≈ 6.1 to 25.1 µg/mL). It also gave an MIC ([4]; Microplate Alamar Blue assay, read-out: Antimycobacterial Activity MIC Mtb H37Rv) of 12.5 µg/mL, an MIC ([4]; calculated from the measured MIC in mass concentration units, read-out: MIC Mtb H37Rv) of 35 µM and an MIC ([5]; Mycobacterium kansasii, read-out: Antimycobacterial Activity MIC M. kans.) of over 100 µg/mL. The “nontoxic for human cell lines up to” value ([6]; MRC-5) was “up to 1000 μM”, the MIC ([7]; Mycobacterium avium, read-out: Antimycobacterial Activity MIC M. avium) was 62.5 µg/mL (≈ 174 µM) and the IC50 [14] was over 1000 µM. It also gave an MIC ([8]; Mycolicibacterium smegmatis, read-out: Antimycobacterial Activity MIC M. smeg.) of 31.2 µg/mL (≈ 87.1 µM), an MIC ([9]; calculated from the measured MIC in mass concentration units, read-out: MIC Mtb H37Ra) of 87 µM and an MIC ([9]; read-out: Antimycobacterial Activity MIC Mtb H37Ra) of 31.2 µg/mL.

For `C[C@@H]1[C@H](O)[C@@H](C)/C=C/C=C/C=C/C=C/C=C/C=C/C=C/[C@H](O[C@@H]2O[C@H](C)[C@@H](O)[C@H](N)[C@@H]2O)C[C@@H]2O[C@](O)(C[C@@H](O)C[C@@H](O)[C@H](O)CC[C@@H](O)C[C@@H](O)CC(=O)O[C@H]1C)C[C@H](O)[C@H]2C(=O)O` [amphotericin B], the IC90 ([15]; Lodderomyces parapsilosis, 24 h; read-out: IC90, spectrophotometric detection, Candida parapsilosis) was 0.5 µg/mL (≈ 0.541 µM), the MIC ([15]; Lodderomyces parapsilosis, 24 h; read-out: MIC, visual detection, Candida parapsilosis) was 0.5 µg/mL (≈ 0.541 µM) and the IC90 ([16]; read-out: IC90, spectrophotometric detection, Candida tropicalis) was 1 µg/mL (≈ 1.08 µM). For the same compound, the MIC [16] was 1 µg/mL (≈ 1.08 µM), the IC90 ([17]; read-out: IC90, spectrophotometric detection, Aspergillus fumigatus) was 1 µg/mL (≈ 1.08 µM) and the MIC [17] was 1 µg/mL (≈ 1.08 µM). It also gave an IC90 ([18]; read-out: IC90, spectrophotometric detection, Candida albicans) of 0.5 µg/mL (≈ 0.541 µM), an IC90 ([19]; 26 °C, read-out: IC90, spectrophotometric detection, Trichophyton interdigitale) of 2 µg/mL (≈ 2.16 µM) and an MIC ([19]; 26 °C) of 2 µg/mL (≈ 2.16 µM). It also gave an IC90 ([20]; Pichia kudriavzevii, 24 h; read-out: IC90, spectrophotometric detection, Candida krusei) of 1 µg/mL (≈ 1.08 µM), an MIC ([20]; Pichia kudriavzevii, 24 h; read-out: MIC, visual detection, Candida krusei) of 1 µg/mL (≈ 1.08 µM) and an IC90 ([21]; read-out: IC90, spectrophotometric detection, Aspergillus flavus) of 8 µg/mL (≈ 8.66 µM). For the same compound, the MIC [21] was 8 µg/mL (≈ 8.66 µM), the IC90 ([22]; read-out: IC90, spectrophotometric detection, Lichtheimia corymbifera) was 0.5 µg/mL (≈ 0.541 µM) and the MIC [22] was 0.5 µg/mL (≈ 0.541 µM).

For `C[C@@H](c1ncncc1F)[C@](O)(Cn1cncn1)c1ccc(F)cc1F` [voriconazole], the IC50 ([15]; Lodderomyces parapsilosis, 24 h, read-out: IC50, spectrophotometric detection, Candida parapsilosis) was 0.03 µg/mL (≈ 0.0859 µM), the MIC ([15]; Lodderomyces parapsilosis, 24 h, read-out: MIC, visual detection, Candida parapsilosis) was 8 µg/mL (≈ 22.9 µM) and the MIC [16] was over 16 µg/mL. The IC50 ([17]; read-out: IC50, spectrophotometric detection, Aspergillus fumigatus) was 0.5 µg/mL (≈ 1.43 µM), the MIC [17] was 1 µg/mL (≈ 2.86 µM) and the IC50 ([18]; read-out: IC50, spectrophotometric detection, Candida albicans) was 0.03 µg/mL (≈ 0.0859 µM). The MIC ([18]; read-out: MIC, visual detection, Candida albicans) was over 16 µg/mL, the IC50 ([19]; read-out: IC50, spectrophotometric detection, Trichophyton interdigitale) was over 16 µg/mL and the MIC [19] was over 16 µg/mL. It also gave an MIC ([20]; Pichia kudriavzevii, 24 h, read-out: MIC, visual detection, Candida krusei) of 0.5 µg/mL (≈ 1.43 µM), an IC50 ([21]; read-out: IC50, spectrophotometric detection, Aspergillus flavus) of 4 µg/mL (≈ 11.5 µM) and an MIC [21] of over 16 µg/mL. It also gave an IC50 ([22]; read-out: IC50, spectrophotometric detection, Lichtheimia corymbifera) of over 16 µg/mL and an MIC [22] of over 16 µg/mL.
